Where “and” joins values, the source holds several entries; their conditions need not be identical. Equal values may be shown once.
Assays:
Type in all cases: cell-based
[1] = test system: Alternaria alternata (Aa); experiment: Fungal efficacy testing, modified ASTM 5590 (12-well, dry paint film); settings: three weeks; for Total conc, ppm: total biocide in paint taken as minimum inhibitory concentration, 30 C; for % inhibition: at the Total conc
Procedure: (§1) Samples of white acrylic latex paint free of biocides were prepared in 50 ml aliquots. Each biocide was post added to give the necessary active ingredient concentration in the paint. The total biocides concentrations tested were 750, 1500, 2500 and 5000 ppm. After biocides addition, each sample was hand mixed for a minimum of 30 sec, followed by a 3 min run on the paint shaker (RED DEVIL). Each of the paint samples as well as a control sample (containing no biocide) were used to prepare films on black plastic-vinyl chloride/acetate copolymer panels (LENETA, Mahwah, N.J.) using a 3 mil bird bar applicator. The panels were thoroughly dried for 5 days avoiding direct exposure to sunlight. Square discs (15 mm^2) were cut out from each panel and were used as the substrate for fungal and algal efficacy tests. This sample size allowed for an agar border when the sample disc was placed into the well of the test plate.
(§2) The appropriate media (BOLD'S 3N for Chlorophytes, BG-11 for Cyanobacteria, and PDA for fungi) were used to support microbial growth. The test plates were maintained at room temp (25° C.-26° C.), in a cycled light-dark environment, for 3 weeks for algae. Plates for fungal challenge tests were maintained at 30C for three weeks. At the end of incubation period the samples were scored for percent area covered by visible microbial growth.
(§3) ASTM 5590 is a standard accelerated test method for determining resistance of various coatings (including paints) to fungal defacement. To accommodate for high-throughput screening, this method was scaled down from petri plates to 12-well plates. To set up the test, an agar plug was placed at the bottom of each well of the sterile 12-well plate. A single coupon was placed with a pair of sterile forceps at the center of the agar plug (on top) with the painted surface facing upwards. Each well was inoculated with 150 μl of organism (1×10^6 cfu/ml) making sure that the whole surface (paint film as well as the agar surrounding it) was evenly covered. The plates were incubated at 30° C. in presence of moisture, for a period of three weeks. The total percent area covered was evaluated and recorded at the end of each week after the 2nd week and recorded in increments of 5%.
(§4) The SI is calculated based on F. C. Kull et.

[2] = test system: Aureobasidium pullulans (Ap); experiment: as above; settings: three weeks; for Total conc, ppm: total biocide in paint taken as minimum inhibitory concentration, 30 C; for % inhibition: at the Total conc
Procedure: as §1, §2, §3, §4

[3] = test system: Cladosporium herbarum (Ch); experiment: as above; settings: three weeks; for Total conc, ppm: total biocide in paint taken as minimum inhibitory concentration, 30 C; for % inhibition: at the Total conc
Procedure: as §1, §2, §3, §4

[4] = test system: Penicillium funiculosum (Pf); experiment: as above; settings: three weeks; for Total conc, ppm: total biocide in paint taken as minimum inhibitory concentration, 30 C; for % inhibition: at the Total conc
Procedure: as §1, §2, §3, §4

[5] = test system: Stachybotris chartarum (Sc); experiment: as above; settings: three weeks; for % inhibition: at the Total conc; for Total conc, ppm: total biocide in paint taken as minimum inhibitory concentration, 30 C
Procedure: as §1, §2, §3, §4

[6] = test system: Aa + Ap (Alternaria alternata + Aureobasidium pullulans); experiment: Fungal efficacy testing, modified ASTM 5590 (6-well, mixed inoculum, Example 4); settings: four weeks; for Total conc, ppm: Aa + Ap mixed inoculum, NE = no end point at the concentration tested; for % inhibition: Aa + Ap, at the Total conc
Procedure: [The source words this procedure for another target and reports this target under the same test.] as §4
(§5) A single or blend of biocides was post added into white acrylic latex paint free of biocides to give a maximum total active ingredient/s concentration tested. This paint was then diluted with a biocide free acrylic latex paint at concentrations range of 75 to 12.5% w/w to give desired concentrations for the testing. Depending on the type of biocide blends tested, the total biocides concentrations varies from 200 to 5000 ppm. After biocides addition or dilution each sample was hand mixed for at least a minute until uniformity is achieved. Each of the paint samples as well as a control sample (containing no biocide) were used to prepare films on black plastic-vinyl chloride/acetate copolymer panels (LENETA, Mahwah, N.J.) using a 3 mil bird bar applicator. The panels were thoroughly dried for at least 2 days avoiding direct exposure to sunlight. Square discs (0.5 inch^2, 13 mm^2) were cut out from each panel and were used as the substrate for fungal and algal efficacy tests. This sample size allowed for an agar border when the sample disc was placed into the well of the test plate. Each sample was tested in duplicate
as §2, with “for four” for “for 3”, “at 30 C” for “at 30C”, “for four” for “for three”, “of the” for “of”
as §3, with “6-well” for “12-well”, “upwards. Fungal inoculums were prepared by mixing equal concentrations (1×10^6 cfu/ml) and equal volumes (depending on number of samples to be tested) of like growing organisms. Cladosporium herbarum was mixed with Aureobasidium pullulans. Aspergillus niger was mixed with Penicillium funiculosum. Alternaria alternata was mixed with Trichoderma viride.” for “upwards.”, “400” for “150”, “organism mixture” for “organism”, “four” for “three”

[7] = test system: An + Pf (Aspergillus niger + Penicillium funiculosum); experiment: as above; settings: four weeks; for Total conc, ppm: An + Pf mixed inoculum, NE = no end point at the concentration tested; for % inhibition: An + Pf, at the Total conc
Procedure: as §4, §5
as §2, with “for four” for “for 3”, “at 30 C” for “at 30C”, “for four” for “for three”, “of the” for “of”
as §3, with “6-well” for “12-well”, “upwards. Fungal inoculums were prepared by mixing equal concentrations (1×10^6 cfu/ml) and equal volumes (depending on number of samples to be tested) of like growing organisms. Cladosporium herbarum was mixed with Aureobasidium pullulans. Aspergillus niger was mixed with Penicillium funiculosum. Alternaria alternata was mixed with Trichoderma viride.” for “upwards.”, “400” for “150”, “organism mixture” for “organism”, “four” for “three”

[8] = test system: Ch + Tv (Cladosporium herbarum + Trichoderma viride); experiment: as above; settings: four weeks
Procedure: [The source words this procedure for another target and reports this target under the same test.] as §4, §5
as §2, with “for four” for “for 3”, “at 30 C” for “at 30C”, “for four” for “for three”, “of the” for “of”
as §3, with “6-well” for “12-well”, “upwards. Fungal inoculums were prepared by mixing equal concentrations (1×10^6 cfu/ml) and equal volumes (depending on number of samples to be tested) of like growing organisms. Cladosporium herbarum was mixed with Aureobasidium pullulans. Aspergillus niger was mixed with Penicillium funiculosum. Alternaria alternata was mixed with Trichoderma viride.” for “upwards.”, “400” for “150”, “organism mixture” for “organism”, “four” for “three”

[9] = test system: Gleocapsa sp. (Gs); experiment: Algal efficacy testing, modified ASTM 5589 (12-well, dry paint film); settings: three weeks; for % inhibition: at the Total conc; for Total conc, ppm: total biocide in paint taken as minimum inhibitory concentration
Procedure: as §1, §2
ASTM 5589 is a standard accelerated test method for determining resistance of various coatings (including paints) to algal defacement. To accommodate for high-throughput screening, this method was scaled down from petri plates to 12-well plates. A single coupon was placed with a pair of sterile forceps at the center of the agar plug (on top) with the painted surface facing upwards. Each well was inoculated with 150 μl of organism (1×10^8 cfu/ml) making sure that the whole surface (paint film as well as the agar surrounding it) was evenly covered. The plates were incubated at room temp (25° C.-26° C.) with cyclic exposure to light (OTT-Lite model #OTL4012P, 40 Watt, 26 KLumen) and dark phases, for a period of three weeks. The total area covered was evaluated at the end of each week according to percent area covered in 5% increments. While rating the plates, notations were made for zones of inhibition.
as §4

[10] = test system: Trichoderma viride (Tv); experiment: Fungal efficacy testing, modified ASTM 5590 (12-well, dry paint film); settings: three weeks; for % inhibition: at the Total conc; for Total conc, ppm: total biocide in paint taken as minimum inhibitory concentration, 30 C
Procedure: as §1, §2, §3, §4

Row | SMILES | Total conc, ppm [1] | Total conc, ppm [2] | Total conc, ppm [3] | Total conc, ppm [4] | % inhibition [5] [%] | Total conc, ppm [5] [ppm] | Total conc, ppm [6] [ppm] | % inhibition [6] [%] | Total conc, ppm [7] [ppm] | % inhibition [7] [%] | Total conc, ppm ([8]; Ch + Tv mixed inoculum, NE = no end point at the concentration tested) [ppm] | % inhibition ([8]; Ch + Tv, at the Total conc) [%] | % inhibition [9] [%] | Total conc, ppm [9] [ppm] | % inhibition [1] [%] | % inhibition [2] [%] | % inhibition [3] [%] | % inhibition [4] [%] | % inhibition [10] [%] | Total conc, ppm [10] [ppm]
1 | CN(C)C(=O)Nc1cccc(C(F)(F)F)c1 [Fluometuron, 1,1-dimethyl-3-(α,α,α-trifluoro-m-tolyl)urea] | 2500 ppm and 5000 ppm | 2500 ppm and 5000 ppm | 2500 ppm and 5000 ppm | 2500 ppm and 5000 ppm | 65 | 5000 | 5000 | 0 | 5000 | 0 | 5000 | 0 |  |  |  |  |  |  |  | 
2 | Cc1ccc(S(=O)(=O)C(I)I)cc1 [DIMTS, diiodomethyl-p-tolylsulfone] | 2500 ppm | 2500 ppm | 750 ppm | 1500 ppm | 50 | 750 | 1250 | 100 | 1250 | 100 |  |  | 80 | 2500 | 77.5 | 77.5 | 72.5 | 82.5 | 90 | 750
3 | CCCCCCCCn1sc(Cl)c(Cl)c1=O [DCOIT, 4,5-dichloro-2-n-octyl-4-isothiazolin-3-one] | 5000 ppm | 2500 ppm | 5000 ppm | 2500 ppm | 32.5 | 5000 | 862.5 | 100 |  |  |  |  | 77.5 | 2500 | 87.5 | 77.5 | 67.5 | 82.5 | 60 | 2500
